Experimental data taken from patent US20260263426A1, “DIAMIDINE ANALOGS FOR ANTI-INFLAMMATORY USE” (MONTDOREX INC., priority 2023, published 2026).

Columns and labels:
[1] = system: HCT-116; assay: HCT-116 IC50 (Table 1); format: cell-based; conditions: Homo sapiens
[2] = system: endo-exonuclease; assay: inhibition of endo-exonuclease activity, in-vitro; format: biochemical; conditions: read-out: EE IC50
Source text: The inhibition of endo-exonuclease has been measured using pentamidine and a pentamidine analog where the center site of pentamidine (the carbon backbone) has been altered. Endo-exonuclease inhibition has been tested in-vitro.

[3] = system: non-alcoholic fatty liver disease; conditions: mice; Zhao E et al (2017) Hepatology 66:922-935; cited from earlier work

| IC50 [1] [µM] | IC50 [2] [µM] | SMILES | body weight [3] | food intake [3] | hepatic triglycerides [3] | serum ALT [3] |
| --- | --- | --- | --- | --- | --- | --- |
| 6.2 | 23.2 | N=C(N)c1ccc(OCCCCCCCCCCOc2ccc(C(=N)N)cc2)cc1 [Decamidine-isethionate] |  |  |  |  |
| 107 | 53.1 | Cl.Cl.N=C(N)c1ccc(OCCCCCOc2ccc(C(=N)N)cc2)cc1 [Pentamidine HCl] | reduces | reduces | reduces | reduces |
